# Assay results as given in patent US11230538B2, “Herbicides” (SYNGENTA PARTICIPATIONS AG, priority 2016, dated 2022).
# Assays:
# Assay type in all cases: in vivo
# [1] = tested on: Alopecurus myosuroides (ALOMY); experiment: B1 Pre-emergence herbicidal activity; parameters: key: 5=total damage to plant; 0=no damage to plant; conditions: pre-emergence application, rate 1000 g/ha, evaluated after 13 days
# Summary of the method: (§1)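 Pre-emergence spray one day after sowing; vehicle acetone/water 50:50 + 0.5% Tween 20. Glasshouse 24/16 °C, 14 h light, 65% RH, watered twice daily. Visual damage score at day 13, 0–5 scale (5 = total damage).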
# Avena fatua (AVEFA) [2] = experiment: B1 Pre-emergence herbicidal activity; parameters: key: 5=total damage to plant; 0=no damage to plant; conditions: pre-emergence application, rate 1000 g/ha, evaluated after 13 days
# Summary of the method: as §1
# [3] = tested on: Triticum aestivium (TRZAW); experiment: B1 Pre-emergence herbicidal activity; parameters: key: 5=total damage to plant; 0=no damage to plant; conditions: pre-emergence application, rate 1000 g/ha, evaluated after 13 days
# Summary of the method: as §1
# [4] = tested on: Echinochloa crus-galli (ECHCG); experiment: B1 Pre-emergence herbicidal activity; parameters: key to Pre-emergence herbicidal activity, ECHCG (damage score 0-5): 5=total damage to plant; 0=no damage to plant; conditions: pre-emergence application, rate 1000 g/ha, evaluated after 13 days
# Summary of the method: as §1
# Lolium perenne (LOLPE) [5] = experiment: B1 Pre-emergence herbicidal activity; parameters: key to Pre-emergence herbicidal activity, LOLPE (damage score 0-5): 5=total damage to plant; 0=no damage to plant; conditions: pre-emergence application, rate 1000 g/ha, evaluated after 13 days
# Summary of the method: as §1
# Setaria fabenr (SETFA) = experiment: B1 Pre-emergence herbicidal activity; parameters: key to Pre-emergence herbicidal activity, SETFA (damage score 0-5): 5=total damage to plant; 0=no damage to plant; conditions: pre-emergence application, rate 1000 g/ha, evaluated after 13 days
# Summary of the method: as §1
# Avena fatua (AVEFA) [6] = experiment: B2 Post-emergence herbicidal activity; conditions: post-emergence application, rate 1000 g/ha, evaluated after 13 days
# Summary of the method: (§2)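 Post-emergence spray, 8-day-old potted seedlings; formulation acetone:water 50:50 + 0.5% Tween 20. Glasshouse 24/16 °C, 14 h light, 65% RH. Scored day 13, 0 (no damage) to 5 (total damage).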
# [7] = tested on: Echinochloa crus-galli (ECHCG); experiment: B2 Post-emergence herbicidal activity; parameters: key to Post-emergence herbicidal activity, ECHCG (damage score 0-5): 5=total damage to plant; 0=no damage to plant; conditions: post-emergence application, rate 1000 g/ha, evaluated after 13 days
# Summary of the method: as §2
# Lolium perenne (LOLPE) [8] = experiment: B2 Post-emergence herbicidal activity; conditions: post-emergence application, rate 1000 g/ha, evaluated after 13 days
# Summary of the method: as §2
# [9] = tested on: Alopecurus myosuroides (ALOMY); experiment: B2 Post-emergence herbicidal activity; parameters: key: 5=total damage to plant; 0=no damage to plant; conditions: post-emergence application, rate 1000 g/ha, evaluated after 13 days
# Summary of the method: as §2
# Setaria fabenri (SETFA) = experiment: B2 Post-emergence herbicidal activity; parameters: key: 5=total damage to plant; 0=no damage to plant; conditions: post-emergence application, rate 1000 g/ha, evaluated after 13 days
# Summary of the method: as §2
# [10] = tested on: Triticum aestivium (TRZAW); experiment: B2 Post-emergence herbicidal activity; parameters: key: 5=total damage to plant; 0=no damage to plant; conditions: post-emergence application, rate 1000 g/ha, evaluated after 13 days
# Summary of the method: as §2
SMILES,"Pre-emergence herbicidal activity, ALOMY (damage score 0-5) [1]","Pre-emergence herbicidal activity, AVEFA (damage score 0-5) (Avena fatua (AVEFA) [2])","Pre-emergence herbicidal activity, TRAZW (damage score 0-5) [3]","Pre-emergence herbicidal activity, ECHCG (damage score 0-5) [4]","Pre-emergence herbicidal activity, LOLPE (damage score 0-5) (Lolium perenne (LOLPE) [5])","Pre-emergence herbicidal activity, SETFA (damage score 0-5) (Setaria fabenr (SETFA))","Post-emergence herbicidal activity, AVEFA (damage score 0-5) (Avena fatua (AVEFA) [6])","Post-emergence herbicidal activity, ECHCG (damage score 0-5) [7]","Post-emergence herbicidal activity, LOLPE (damage score 0-5) (Lolium perenne (LOLPE) [8])","Post-emergence herbicidal activity, ALOMY (damage score 0-5) [9]","Post-emergence herbicidal activity, SETFA (damage score 0-5) (Setaria fabenri (SETFA))","Post-emergence herbicidal activity, TRAZW (damage score 0-5) [10]"
O=C(Nc1ccc(-c2cncc(F)c2)nc1C(F)(F)F)c1ccccn1 [Compound C45],0,2,0,5,1,4,2,5,2,0,5,1
CC(C)C(=O)Nc1ccc(-c2cncnc2)nc1C(F)(F)F [Compound C8],0,3,0,4,2,5,4,4,2,3,5,2
CCC(=O)N(Cc1ccncc1)c1ccc(-c2cncc(F)c2)nc1C(F)(F)F [Compound C70],0,1,0,2,1,2,2,2,1,0,3,0
O=C(CCl)Nc1ccc(-c2cncc(F)c2)nc1C(F)(F)F [Compound C35],0,1,0,4,1,4,3,5,2,0,5,0
Cc1nc(-c2cncc(F)c2)ccc1N(C(=O)C(C)C)C(=O)C(C)C [Compound C1],0,2,1,5,1,5,3,5,4,1,5,1
"O=C(Nc1ccc(-c2cncc(F)c2)nc1C(F)(F)F)c1cncnc1 [Compound C120, N-[6-(5-fluoro-3-pyridyl)-2-(trifluoromethyl)-3-pyridyl]pyrimidine-5-carboxamide]",0,3,0,4,1,5,3,5,3,1,5,2
CCC(=O)Nc1ccc(-c2cncc(F)c2)nc1C#N [Compound C115],0,0,0,5,1,5,2,4,1,0,5,0
O=C(Nc1ccc(-c2cncc(F)c2)nc1C(F)(F)F)c1c(F)cccc1F [Compound C31],1,2,0,4,0,5,3,5,3,0,5,0
O=C(COc1ccccc1)Nc1ccc(-c2cncc(F)c2)nc1C(F)(F)F [Compound C28],0,3,0,4,1,4,4,5,3,0,5,0
CCCCC(=O)Nc1ccc(-c2cncc(F)c2)nc1C(F)(F)F [Compound C49],1,2,0,5,1,5,4,5,3,1,5,0
"Cc1nc(-c2cncnc2)ccc1NC(=O)C(C)C [Compound C2, 2-methyl-N-(2-methyl-6-pyrimidin-5-yl-3-pyridyl)propanamide]",0,0,0,3,1,5,3,5,2,1,5,1
C/C=C/C(=O)Nc1ccc(-c2cncc(F)c2)nc1C(F)(F)F [Compound C23],1,3,1,5,1,5,3,5,3,0,5,0
